Measurements from patent publication US11945812B2, “Annulated 2-amino-3-cyano thiophenes and derivatives for the treatment of cancer” (Boehringer Ingelheim International GmbH, priority 2020, dated 2024).
pIC50: −log10 of the molar value.

How the values were obtained:
[1] = tested on: SW837 cells; assay: SW837 CTG proliferation assay (CRC); format: cell-based; details: Homo sapiens; SW837 CTG proliferation; read-out: IC50 SW837
Experimental: SW837 CTG Proliferation Assay (CRC)
SW837 cells (ATCC #CCL-235) were grown in cell culture flasks (175 cm^2) using L-15 10% FCS, 1% L-Glu, 1×NEAA and 1×Na-Pyrovat. Cultures were incubated at 37° C. and 0% CO2 in a humidified atmosphere, with medium change or subcultivation 2-3 times a week. Materials used for the assay were CulturPlate-384, White Opaque 384-well Microplate, Sterile and Tissue Culture Treated (Perkin Elmer #6007680), Leibovitz L15 Medium and FBS # SH30071.03 (HyClone).
The proliferation assays started (day1) with seeding cells in flat bottom 384 well microtiter plates in 90 μL L-15 10% FCS, 1% L-Glu, 1×NEAA and 1× Na-Pyrovat at a density of 500 cells/well. Any other luminescence compatible plate format is possible. On day 2, 10 μL dilutions of the test compounds covering a concentration range between app. 0, 1 and 10.000 nM were added to the cells. Cells were incubated for 5 days in a humidified, CO2 controlled (no CO2) incubator at 37° C. On day 7 100 μL of Cell Titer Glow reagent (Cell titer Glo Luminescent Cat. No. G7571, Promega) were added to each well and incubated for additional 10 min at room temperature (with agitation). Luminescence was measured on a Wallac Victor using standard luminescence read out. IC50 values were calculated using standard Levenburg Marquard algorithms (GraphPad Prism).

[2] = tested on: NCI-H358 cells; assay: NCI-H358 CTG proliferation assay (120 h) (NSCLC); format: cell-based; details: Homo sapiens, read-out: IC50 NCl-H358
Experimental: NCI-H358 CTG Proliferation Assay (120 h) (NSCLC)
NCI-H358 cells (ATCC No. CRL-5807) were dispensed into white bottom opaque 96 well plates (Perkin Elmer cat no. 5680) at a density of 2000 cells per well in 100 μL RPMI-1640 ATCC-Formulation (Gibco # A10491)+10% FCS. Cells were incubated overnight at 37° C. in a humidified tissue culture incubator at 5% CO2. Compounds (10 mM stock in DMSO) were added at logarithmic dose series using the HP Digital Dispenser D300 (Tecan), normalizing for added DMSO. For the TO time point measurement, untreated cells were analyzed at the time of compound addition. Plates were incubated for 120 hours, and cell viability was measured using CellTiter-Glo luminescent cell viability reagent (Promega product code G7570). Viability (stated as percent of control) is defined as relative luminescence units RLU of each well divided by the RLU of cells in DMSO controls. IC50 values were determined from viability measurements by non-linear regression using a four parameter model.

[3] = Plasma protein binding (equilibrium dialysis), mouse plasma; format: in vitro ADME; details: read-out: PPB mouse fu
Experimental: (§1) Plasma Protein Binding (PPB)
(§2) Binding of test compound to plasma was determined using equilibrium dialysis (ED) and quantitative mass spectrometry interfaced with liquid chromatography (LC-MS). In brief, ED was performed with dialysis devices consisting of two chambers separated by a semipermeable membrane with a molecular weight cut-off of 5-10 kg/mol. One chamber was filled with commercially sourced plasma (mouse and human plasma, respectively) or serum (10% FCS in PBS) containing 1-10 μmol/L test compound and the other chamber was filled with phosphate-buffer saline (PBS) with or without dextran. The dialysis chamber was incubated for 3-5 hours at 37° C. After incubation, protein was precipitated from aliquots of each chamber and the concentration of test compound in the supernatant of the plasma-containing compartment (cplasma) and of the buffer-containing compartment (Cbuffer) was determined by LC-MS. The fraction of unbound test compound (not bound to plasma) (fu) was calculated according to the following equation: […]

[4] = target: T1, KRAS G12C::SOS1 protein-protein interaction (Homo sapiens, UniProt P01116, C118S/C51S/C80L/G12C); assay: KRAS::SOS1 AlphaScreen binding assay; details: KRAS G12C::SOS1 AlphaScreen
T1 construct: His6 (N); host or cells: E. coli
T1 sequence (P01116 1-169 isoform P01116-2 G12C/C51S/C80L/C118S): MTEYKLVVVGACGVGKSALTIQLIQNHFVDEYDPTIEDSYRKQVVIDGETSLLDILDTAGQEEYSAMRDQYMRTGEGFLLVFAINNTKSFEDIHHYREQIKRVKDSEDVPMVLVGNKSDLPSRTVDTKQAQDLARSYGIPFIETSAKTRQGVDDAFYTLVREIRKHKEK
From the text: KRAS::SOS1 AlphaScreen Binding Assay
Reagents: • GST-tagged SOS1 (564_1049_GST_TEV_ECO) produced in-house • GST-TEV-SOS1 (564-1049) is purchased from Viva Biotech Ltd. • The expression construct of KRAS G12C (amino acids 1-169 of reference sequence P01116-2 (uniprot), with additional mutations: C51S, C80L, and C118S) containing a C-terminal avi-tag was obtained by gene synthesis (GeneArt, Thermo Fisher) in donor vector (pDONR-221) and transferred by recombinant cloning into pDEST17 vector bearing an N-terminal His6-tag. The protein was expressed in E. coli and the purified protein was biotinylated with the E. coli biotin ligase (BirA) before usage. • GDP (Sigma Cat No G7127) • AlphaLISA Glutathione Acceptor Beads (PerkinElmer, Cat No AL109) • AlphaScreen Streptavidin Donor Beads (PerkinElmer Cat No 6760002) • Assay plates: Proxiplate-384 PLUS, white (PerkinElmer, Cat No 6008289)
Assay Buffer: • 1×PBS • 0.1% BSA • 0.05% Tween 20
7.5 nM (final assay concentration) KRAS G12C, 10 μM (final assay concentration) GDP and 5 nM (final assay concentration) GST-SOS1 are mixed in assay buffer prior to use and kept at room temperature.
AlphaLISA Glutathione Acceptor Beads and AlphaScreen Streptavidin Donor Beads are mixed in assay buffer at a concentration of 10 μg/mL (final assay concentration) each prior to use and kept at room temperature.
Compounds are diluted to a final start concentration of 100 μM and are tested in duplicate. Assay-ready plates (ARPs) are generated using an Access Labcyte Workstation with a Labcyte Echo 550 or 555 accoustic dispenser. For compound a start concentration of 100 μM, 150 nL of compound solution is transferred per well in 11 concentrations in duplicate with serial 1:5 dilutions.
The assay is run using a fully automated robotic system in a darkened room below 100 Lux. 10 μL of KRAS::SOS1 GDP mix is added into columns 1-24 to the 150 nL of compound solution (final dilution in the assay 1:100, final DMSO concentration 1%).
After 30 minutes incubation time 5 μL of bead mix is added into columns 1-23. Plates are kept at room temperature in a darkened incubator. After further 60 minutes incubation, the signal is measured using a PerkinElmer Envision HTS Multilabel Reader using the AlphaScreen specifications from PerkinElmer. Each plate contains the following controls: • diluted DMSO+KRAS::SOS1 GDP mix+bead mix • diluted DMSO+KRAS::SOS1 GDP mix
IC50 values are calculated and analyzed using a 4 parametric logistic model.
Tables of example compounds disclosed herein contain IC50 values determined using the above assay.

[5] = Plasma protein binding (equilibrium dialysis), human plasma; format: in vitro ADME; details: read-out: PPB human fu
Experimental: as §1, §2

[6] = Plasma protein binding (equilibrium dialysis), serum 10% FCS in PBS; format: in vitro ADME; details: bovine, 10% FCS in PBS (serum), read-out: PPB 10% FCS fu
Experimental: as §1, §2

| SMILES | pIC50 [1] | pIC50 [2] | fraction unbound [3] | pIC50 [4] | fraction unbound [5] | fraction unbound [6] |
| --- | --- | --- | --- | --- | --- | --- |
| C=CC(=O)N1CCN(c2cc(O[C@@H](C)[C@@H]3CCCN3C)nc(-c3cc([C@@]4(C)CCCc5sc(N)c(C#N)c54)on3)n2)[C@H](C)C1 [Ib-1] | 9.17 | 8.73 | 0.011 | 8.80 | 0.032 | 0.075 |
| C=CC(=O)N1[C@@H](C)CN(c2cc(O[C@@H](C)[C@@H]3CCCN3C)nc(-c3cc([C@@]4(C)CCCc5sc(N)c(C#N)c54)on3)n2)C[C@@H]1C [Ib-4] | 9.16 | 9.26 | 0.007 | 8.80 | 0.021 | 0.055 |
| C=CC(=O)N1CCN(c2cc(O[C@@H](C)[C@@H]3CCCN3C)nc(-c3cc([C@@]4(C)CCCc5sc(N)c(C#N)c54)on3)n2)CC12CC2 [Ib-5] | 7.80 | 8.01 | 0.004 | 8.52 | 0.019 | 0.058 |
| C=CC(=O)N1CCN(c2cc(O[C@@H](C)[C@@H]3CCCN3C)nc(-c3cc(C4(C)CCCc5sc(N)c(C#N)c54)on3)n2)CC1 (stereo partly drawn) [Ib-6] | > 9.00 | 8.78 | 0.014 | 8.52 | 0.059 | 0.167 |
| C=C(F)C(=O)N1CCN(c2cc(O[C@@H](C)[C@@H]3CCCN3C)nc(-c3cc([C@@]4(C)CCCc5sc(N)c(C#N)c54)on3)n2)[C@H](C)C1 [Ib-10] | 7.83 | 7.39 | 0.005 | 7.89 | 0.013 | 0.063 |
| C=C(F)C(=O)N1[C@@H](C)CN(c2cc(O[C@@H](C)[C@@H]3CCCN3C)nc(-c3cc([C@@]4(C)CCCc5sc(N)c(C#N)c54)on3)n2)C[C@@H]1C [Ib-11] | 8.25 | 7.46 | 0.003 | 7.82 | – | 0.045 |
| COC/C=C/C(=O)N1CCN(c2cc(O[C@@H](C)[C@@H]3CCCN3C)nc(-c3cc([C@@]4(C)CCCc5sc(N)c(C#N)c54)on3)n2)[C@H](C)C1 [Ib-14] | 7.95 | 7.72 | 0.01 | 8.22 | 0.016 | 0.066 |
| C=CC(=O)N1CCN(c2cc(O[C@@H](C)[C@@H]3CCCN3C)nc(-c3cc([C@@]4(C)CCCc5sc(N)c(C#N)c54)no3)n2)CC12CC2 [Ic-3] | 7.98 | 7.62 | – | 8.52 | 0.028 | 0.109 |
| C=CC(=O)N1[C@@H](C)CN(c2cc(O[C@@H](C)[C@@H]3CCCN3C)nc(-c3cc([C@@]4(C)CCCc5sc(N)c(C#N)c54)no3)n2)C[C@@H]1C [Ic-4] | 8.79 | 8.60 | 0.011 | 8.72 | 0.027 | 0.083 |
| C=CC(=O)N1[C@H](C)CN(c2cc(O[C@@H](C)[C@@H]3CCCN3C)nc(-c3cc([C@@]4(C)CCCc5sc(N)c(C#N)c54)no3)n2)C[C@@H]1C [Ic-5] | 8.15 | 7.81 | 0.003 | 8.30 | 0.02 | 0.148 |
| C=CC(=O)N1CCC(Oc2cc(N3CCN(C)C[C@@H]3C)nc(-c3cc(C4(C)CCCc5sc(N)c(C#N)c54)no3)n2)CC1 (stereo partly drawn) [Ic-7] | 7.35 | 7.11 | 0.001 | 7.36 | 0.02 | 0.252 |
| C=C(F)C(=O)N1[C@@H](C)CN(c2cc(O[C@@H](C)[C@@H]3CCCN3C)nc(-c3cc([C@@]4(C)CCCc5sc(N)c(C#N)c54)no3)n2)C[C@@H]1C [Ic-8] | 7.44 | 7.03 | 0.003 | 7.39 | – | 0.078 |
| COC/C=C/C(=O)N1CCN(c2cc(O[C@@H](C)[C@@H]3CCCN3C)nc(-c3cc(C4(C)CCCc5sc(N)c(C#N)c54)no3)n2)CC1 (stereo partly drawn) [Ic-9] | 6.91 | 6.77 | 0.008 | 7.54 | 0.043 | 0.259 |
| C=CC(=O)N1CCN(c2cc(O[C@@H](C)[C@@H]3CCCN3C)nc(-c3cc([C@@]4(C)CCCc5sc(N)c(C#N)c54)sn3)n2)CC1 [Id-1] | 9.70 | 9.36 | 0.021 | 8.80 | – | 0.476 |
| C=CC(=O)N1[C@H](C)CN(c2cc(O[C@@H](C)[C@@H]3CCCN3C)nc(-c3cc([C@@]4(C)CCCc5sc(N)c(C#N)c54)sn3)n2)C[C@@H]1C [Id-2] | 8.96 | 8.59 | 0.003 | 8.80 | 0.009 | 0.434 |
| C=CC(=O)N1CCN(c2cc(O[C@@H](C)[C@@H]3CCCN3C)nc(-c3cc([C@@]4(C)CCCc5sc(N)c(C#N)c54)sn3)n2)CC12CC2 [Id-5] | 9.10 | 8.22 | 0.003 | 8.77 | – | 0.338 |
| C=CC(=O)N1CCC(Oc2cc(O[C@@H](C)[C@@H]3CCCN3C)nc(-c3cc([C@@]4(C)CCCc5sc(N)c(C#N)c54)sn3)n2)CC1 [Id-6] | 9.46 | 9.03 | 0.003 | 8.80 | – | 0.521 |
